Data: patent US11584744B2 (UNIVERSITY OF WASHINGTON, priority 2017, dated 2023)
Converted amounts (≈) assume the structure as drawn.

How the values were obtained:
[1] = system: S. aureus MRSA (ATCC 43300); assay: MIC susceptibility testing; type: cell-based; details: Staphylococcus aureus; read-out: S. aureus MRSA (ATCC 43300) MIC
In short: (§1)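 CLSI broth microdilution in triplicate, 5×10^5 CFU/mL final, ≤0.5% DMSO; MHB for S. aureus, CA-MHB for E. coli and E. faecium, CA-MHB plus 3% laked horse blood for S. pyogenes (5% CO2).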

[2] = system: S. pneumoniae (ATCC 49619); assay: MIC susceptibility testing; type: cell-based; details: Streptococcus pneumoniae, ATCC49619, 18 h; medium with 3% laked horse blood; read-out: S. pneumoniae (ATCC 49619) MIC
[3] = system: S. aureus MSSA (ATCC 19636); assay: MIC susceptibility testing; type: cell-based; details: Staphylococcus aureus; read-out: S. aureus MSSA (ATCC 19636) MIC
In short: as §1

[4] = system: S. aureus (ATCC 29213); assay: Neutropenic murine S. aureus thigh infection model; type: in vivo, Staphylococcus aureus; details: 75 mg/kg orally ×2; for reduction of bacterial load below stasis level: neutropenic mouse
Description: Murine thigh infection model. Animal studies were approved by the Institutional Animal Care and Use Committee at the University of Washington, Seattle. Female specific pathogen free CD1 mice were obtained from Charles River (Wilmington, Mass.) weighing 23-27 grams and allowed at least 3 days to acclimate prior to study. Mice had access to food and water ad libitum. Neutropenia was induced by administering cyclophosphamide monohydrate (Sigma Aldrich C7397; St. Louis, Mo.) via IP injection 4 days (at 150 mg/kg) and 1 day (at 100 mg/kg) prior to infection. Neutropenic status was confirmed by neutrophil count <100 cells/mm^3.
Overnight culture of S. aureus (ATCC strain 29213) was diluted 1:100 in MHB and incubated until reaching mid-log phase (OD600<0.750). The inoculum was prepared by pelleting log-phase culture and re-suspending in sterile dPBS. The culture was adjusted to OD600 of 0.200 and diluted 1:100 in sterile dPBS correlating to an inoculum of ˜5*10^5 CFU/50 μL. The mice were infected by an intramuscular injection of 50 μL in the right posterior thigh while under isoflurane gas anesthesia. At 1 h post infection, one vehicle group was sacrificed for determination of initial inoculum ([…] level of infection). Mice were dosed at 2 and 12 h post-infection with test compounds (below); they received a SC dose of 5 mg/kg ketoprofen at 2 h post-infection for pain management. Mice were sacrificed at 24 h post-infection; the thigh muscle was sterilely removed, weighed, homogenized in 5 mLs dPBS, serially diluted, plated on tryptic soy agar in duplicate, and incubated overnight at 37° C. Colonies were counted to quantify the bacterial load in CFUs per gram of thigh tissue.
Vancomycin was given at 100 mg/kg SC in 100 μL in a 0.9% saline solution. […] Test compounds were administered PO in 200 μL of vehicle containing 60% Phosal 53 MCT (Lipoid, Ludwigshafen Germany), 30% PEG400 (Sigma Aldrich, St. Louis, Mo.), and 10% EtOH (Decon Laboratories, King of Prussia, Pa.).
Efficacy studies in mice: Selected compounds were tested for in vivo efficacy in the neutropenic S. aureus thigh infection model (9). Mice were immunosuppressed with cyclophosphamide then infected in a thigh with 5×10^5 S. aureus (ATCC 29213). Compounds were dosed orally with 75 mg/kg at 2 and 12 h post-infection. At 24 h, thighs were harvested for CFU counts.

[5] = system: S. aureus (ATCC 29213); type: cell-based, Staphylococcus aureus; details: 8× the MIC; for Resistance frequency (Expt. 1) / Resistance frequency (Expt. 2): 72 h; for Resistance frequency (average or greater #): two independent experiments
Protocol: Resistance frequency rates determination: The spontaneous resistance frequency rates to test compounds was determined according to published methods. Agar selection plates were made by adding compound from DMSO stocks into molten Mueller Hinton agar in a 55° C. water bath. […] The final DMSO concentration was <0.1% per plate. Plates were dried in a sterile hood for 30 minutes prior to overnight storage at 4° C., and pre-warmed in the 37° C. incubator for 1 hour prior to assay.
A fresh overnight culture was diluted 1:50 in MHB and grown at 37° C. with shaking (150 rpm) until reaching an OD600 of 0.4 correlating to ˜2×10^9 CFUs/mL. Approximately 3 mL for a total of 6*10^9 CFUs were distributed onto 4 plates for each compound. Plates were incubated at 37° C. for 72 h prior to counting of colonies. The starting inoculum was also serially diluted and plated to quantify initial bacterial load. The resistance frequency was determined as the number of compound-resistant colonies divided by the total colonies plated.
Resistance frequency rates: The propensity for S. aureus to develop resistance to MetRS inhibitors was also studied (Table 6).

Compound	MIC [1]	MIC [2]	MIC [3]	efficacy in thigh infection model [4]	reduction of bacterial load below stasis level [4]	Resistance frequency (Expt. 1) [5]	Resistance frequency (Expt. 2) [5]	Resistance frequency (average or greater #) [5]
Fc1ccc2nc(NCCCNCc3cc(Cl)cc(Cl)c3)[nH]c2n1 [Compound 1614, [(3,5-dichlorophenyl)methyl][3-({5-fluoro-3H-imidazo[4,5-b]pyridin-2-yl}amino)propyl]amine]	5 µg/mL (≈ 13.6 µM)	> 10 µg/mL	2.5 µg/mL (≈ 6.79 µM)	–	–	–	–	–
Fc1ccc2nc(NCCCN[C@@H]3CCNc4c(Cl)cc(Cl)cc43)[nH]c2n1 [Compound 1717, (4R)-6,8-dichloro—N-[3-({5-fluoro-3H-imidazo[4,5-b]pyridin-2-yl}amino)propyl]-1,2,3,4-tetrahydroquinolin-4-amine, reference compound]	0.156 µg/mL (≈ 0.381 µM)	> 20 µg/mL	0.078 µg/mL (≈ 0.191 µM)	significant reduction of bacterial load below the stasis level	approximately 2 log	2.89 × 10^−9	5.43 × 10^−9	–
CCn1c(Cc2ccc(OC)cc2Cl)cn(Cc2nc3nc(Cl)ccc3[nH]2)c1=O [Compound 2093, 1-({5-chloro-1H-imidazo[4,5-b]pyridin-2-yl}methyl)-4-[(2-chloro-4-methoxyphenyl)methyl]-3-ethyl-2,3-dihydro-1H-imidazol-2-one]	0.313 µg/mL (≈ 0.724 µM)	> 20 µg/mL	0.313 µg/mL (≈ 0.724 µM)	weaker activity than the other MetRS inhibitors evaluated	–	1.60 × 10^−8	2.58 × 10^−8	2.10 × 10^−8
COc1cc(Cl)c(-c2cccc3nc(Cc4nc5nc(Cl)ccc5[nH]4)cn23)cc1OC [Compound 2144, 2-({5-chloro-1H-imidazo[4,5-b]pyridin-2-yl}methyl)-5-(2-chloro-4,5-dimethoxyphenyl)imidazo[1,2-a]pyridine]	0.039 µg/mL (≈ 0.0858 µM)	> 20 µg/mL	0.078 µg/mL (≈ 0.172 µM)	significant reduction of bacterial load below the stasis level	approximately 2 log	3.15 × 10^−9	2.45 × 10^−8	1.38 × 10^−8
CC(=O)NC[C@H]1CN(c2ccc(N3CCOCC3)c(F)c2)C(=O)O1 [LNZ, linezolid]	2.5 µg/mL (≈ 7.41 µM)	1.25 µg/mL (≈ 3.71 µM)	1.25 µg/mL (≈ 3.71 µM)	–	–	–	–	–
